Assay results taken from patent US20100311674A1, “PHARMACEUTICAL COMPOSITIONS WITH A MECHANISM OF MULTI-TARGET RECEPTOR RETROACTION FOR TREATING DEPRESSION” (Yu-Fen Chi, priority 2007, published 2010).

Assays:
ICR mice = assay: Mouse tail-hanging experiment (Experiment 9); format: in vivo
Protocol: 9.1 Experiment pharmaceuticals: The pharmaceutical of Embodiment 5 is provided by Beijing Wonner Biotech. […] Above-mentioned pharmaceuticals are prepared with physiological saline for feeding into the stomach. 9.2 Experimental animals: ICR mice, male, 20.0±1 g of body weight, secondary, are provided by the Experimental Animal Science Department of Capital Medical University, Beijing. The quality certificate number of mice is SOCK (DING) 2006-2008. […] The pharmaceuticals are fed into mouse's stomach once every day. After 1 hour of the last administration of drug on the eighth day, the mouse's tail (1 cm to the tail end) is taped on the horizontal support in an opened box, and the mouse represents the reversed hung status. The mouse head is away from the bottom of the opened box for about 10 cm, and the mouse is hung up for 6 minutes. The time of non-movement of the mouse for the last 5 minutes is recorded. 9.5 Statistic calculation: The experimental data are represented as X±SD, and the experimental result is calculated as one-way ANOVA by SPSS 11.5 statistic software.

[1] = tested on: rat olfactory bulb lesion model; assay: Open field activity experiment of the rat olfactory bulb lesion model (Experiment 7); format: in vivo; conditions: 2 mg/kg/d into the stomach, 24 days; within 3 minutes
Protocol: Olfactory bulb lesion model: Health Wistar male rats, secondary, 330±20 g of body weight, are purchased from Beijing Vital River Experimental Animal Technology Ltd. Co. (The quality certificate number: SCXK (JING) 2002-2003).
The above pharmaceuticals are prepared with 0.5% of sodium carboxymethylcellulose (CMC-Na) for feeding into the stomach. Benzylpenicillin sodium for injection is the product of North China Pharmaceutical Huasheng Co. Ltd. (Lot: S0511204), and norepinephrine (NE) and 5-hydrotryptamine (5-HT) standards are the products of Sigma Co. Other reagents are all marketed.
7.4.1 Group division and administration of drug: The rats are grouped randomly into 6 groups. 1. […]
7.5.1 Open field activity experiment: The open field activity box (1 m×1 m×0.4 m) is constructed by the light blue plywood and the aluminum alloy frame. […] The rat is placed in the center of the central grids, and the rat's cross-grid number (the number of crossing into the neighboring gird more than 3 claws) and rat's standing number (two forelimbs leaving the ground for more than 1 cm) are calculated/observed within 3 minutes.
7.6 Statistic calculation: The experimental data are represented as X+SD, and the experimental result is calculated as ANOVA by SPSS 11.5 statistic software.

[2] = tested on: unpredictable long-term stimulus model; assay: Step-through test (passive avoidance), unpredictable long-term stimulus model (Experiment 8); format: in vivo, rat; conditions: 2 mg/kg/d into the stomach, 24 days
From the text: 7.5.2 Passive avoidance experiment (Step-through test): The step through box is configured by the light chamber and the dark chamber, and a channel is linked between the bright chamber and the dark chamber for mouse entrance and exit. The grille of the dark chamber is connected to the electric shock equipment, and a mobile plate is set there between. If the rat enters into the dark chamber, the rat will be electrically shocked. During training, the rat is placed in the light chamber and is back in the hole for adaptation for 5 minutes. Then the plate is removed and the rat is observed for another 5 minutes. The time that the rat enters into for the first time is recorded (electric-shocking latent period), and the time thereof is the learning record. After 24 hours, the test is repeated. The plate is removed and the dark chamber is electrified for 5 minutes so as to observe the time that the rat enters into the dark chamber for the first time. This is thereof the memory record.
Unpredictable long-term stimulus model: Health Wistar male rats, secondary, 240˜270 g of body weight, are purchased from Beijing Vital River Experimental Animal Technology Ltd. Co. (The quality certificate number: SOCK (JING) 2002-2003). […]
8.6 Statistic calculation: The experimental data are represented as […], and the experimental result is calculated as ANOVA by SPSS 11.5 statistic software.

Fc1ccc([C@@H]2CCNC[C@H]2COc2ccc3c(c2)OCO3)cc1 [Paroxetine]
Time of non-movement (ICR mice; 3 mg/kg/d into the stomach, 1 h after last dose on the eighth day, last 5 of 6 min): 53.27 ± 20.02 s
Effect on accumulative time of non-movement, tail-hanging (in words) (ICR mice; high, middle and low doses of Embodiment 5, Paroxetine): obviously decrease the accumulative time of non-movement
Horizontal movement (cross-grid number) [1]: 55.36 ± 25.96
Vertical movement (standing number) [1]: 14.36 ± 5.55
Latent period of first day ([2]; learning record): 75.75 ± 46.52 s
Latent period of second day ([2]; memory record): 257.46 ± 66.92 s
